{"source": "PubChem BioAssay (NCI)", "assay_in_all_cases": "inhibition of tumour cell growth, NCI panel, 48 h", "key": {"A549 NSCLC": {"tested_on": "A549 NSCLC"}, "SF-268 CNS": {"tested_on": "SF-268 CNS"}, "OVCAR-4 ovarian": {"tested_on": "OVCAR-4 ovarian"}, "SK-MEL-2 melanoma": {"tested_on": "SK-MEL-2 melanoma"}, "BT-549 breast": {"tested_on": "BT-549 breast"}, "ACHN renal": {"tested_on": "ACHN renal"}, "786-0 renal": {"tested_on": "786-0 renal"}, "HL-60(TB) leukemia": {"tested_on": "HL-60(TB) leukemia"}, "U251 CNS": {"tested_on": "U251 CNS"}, "RPMI-8226 leukemia": {"tested_on": "RPMI-8226 leukemia"}, "HS 578T breast": {"tested_on": "HS 578T breast"}, "OVCAR-8 ovarian": {"tested_on": "OVCAR-8 ovarian"}, "OVCAR-3 ovarian": {"tested_on": "OVCAR-3 ovarian"}, "PC-3 prostate": {"tested_on": "PC-3 prostate"}, "SR leukemia": {"tested_on": "SR leukemia"}, "SNB-19 CNS": {"tested_on": "SNB-19 CNS"}, "CCRF-CEM leukemia": {"tested_on": "CCRF-CEM leukemia"}, "COLO 205 colon": {"tested_on": "COLO 205 colon"}, "TK-10 renal": {"tested_on": "TK-10 renal"}, "DU-145 prostate": {"tested_on": "DU-145 prostate"}, "KM12 colon": {"tested_on": "KM12 colon"}, "UACC-62 melanoma": {"tested_on": "UACC-62 melanoma"}, "IGROV1 ovarian": {"tested_on": "IGROV1 ovarian"}, "NCI-H226 lung": {"tested_on": "NCI-H226 lung"}, "HCT-15 colon": {"tested_on": "HCT-15 colon"}}, "note": "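48-hour exposure; five concentrations; linearly interpolated endpoints. GI50: concentration for 50% inhibition of growth. TGI: total growth inhibition.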", "data": [{"smiles": "Fc1ccc(-c2cc3nc(C(Cl)Cl)nc(-c4ccccc4)n3n2)cc1", "values": [{"measurement": "GI50", "setting": "A549 NSCLC", "result": 1.1, "unit": "µM"}, {"measurement": "TGI", "setting": "A549 NSCLC", "result": 2.6, "unit": "µM"}, {"measurement": "GI50", "setting": "SF-268 CNS", "result": 1.81, "unit": "µM"}, {"measurement": "TGI", "setting": "SF-268 CNS", "result": 5.21, "unit": "µM"}, {"measurement": "GI50", "setting": "OVCAR-4 ovarian", "result": 2.15, "unit": "µM"}, {"measurement": "TGI", "setting": "OVCAR-4 ovarian", "result": 7.32, "unit": "µM"}, {"measurement": "GI50", "setting": "SK-MEL-2 melanoma", "result": 4.46, "unit": "µM"}, {"measurement": "TGI", "setting": "SK-MEL-2 melanoma", "result": "> 100", "unit": "µM"}, {"measurement": "GI50", "setting": "BT-549 breast", "result": 5.44, "unit": "µM"}, {"measurement": "TGI", "setting": "BT-549 breast", "result": "> 100", "unit": "µM"}, {"measurement": "GI50", "setting": "ACHN renal", "result": 0.777, "unit": "µM"}, {"measurement": "TGI", "setting": "ACHN renal", "result": 3.02, "unit": "µM"}, {"measurement": "GI50", "setting": "786-0 renal", "result": 6.33, "unit": "µM"}, {"measurement": "TGI", "setting": "786-0 renal", "result": "> 100", "unit": "µM"}, {"measurement": "GI50", "setting": "HL-60(TB) leukemia", "result": 0.507, "unit": "µM"}, {"measurement": "TGI", "setting": "HL-60(TB) leukemia", "result": 74.6, "unit": "µM"}, {"measurement": "GI50", "setting": "U251 CNS", "result": 0.984, "unit": "µM"}, {"measurement": "TGI", "setting": "U251 CNS", "result": 2.59, "unit": "µM"}, {"measurement": "GI50", "setting": "RPMI-8226 leukemia", "result": 2.2, "unit": "µM"}, {"measurement": "TGI", "setting": "RPMI-8226 leukemia", "result": 10, "unit": "µM"}, {"measurement": "GI50", "setting": "HS 578T breast", "result": 3.01, "unit": "µM"}, {"measurement": "TGI", "setting": "HS 578T breast", "result": 9.19, "unit": "µM"}, {"measurement": "GI50", "setting": "OVCAR-8 ovarian", "result": 1.41, "unit": "µM"}, {"measurement": "TGI", "setting": "OVCAR-8 ovarian", "result": 3.87, "unit": "µM"}, {"measurement": "GI50", "setting": "OVCAR-3 ovarian", "result": 1.53, "unit": "µM"}, {"measurement": "TGI", "setting": "OVCAR-3 ovarian", "result": 3.1, "unit": "µM"}, {"measurement": "GI50", "setting": "PC-3 prostate", "result": 1.75, "unit": "µM"}, {"measurement": "TGI", "setting": "PC-3 prostate", "result": 4.39, "unit": "µM"}, {"measurement": "GI50", "setting": "SR leukemia", "result": 2.17, "unit": "µM"}, {"measurement": "TGI", "setting": "SR leukemia", "result": "> 100", "unit": "µM"}, {"measurement": "GI50", "setting": "SNB-19 CNS", "result": 1.58, "unit": "µM"}, {"measurement": "TGI", "setting": "SNB-19 CNS", "result": 6.6, "unit": "µM"}, {"measurement": "GI50", "setting": "CCRF-CEM leukemia", "result": 6.5, "unit": "µM"}, {"measurement": "TGI", "setting": "CCRF-CEM leukemia", "result": "> 100", "unit": "µM"}, {"measurement": "GI50", "setting": "COLO 205 colon", "result": 1.15, "unit": "µM"}, {"measurement": "TGI", "setting": "COLO 205 colon", "result": 2.5, "unit": "µM"}, {"measurement": "GI50", "setting": "TK-10 renal", "result": 2.13, "unit": "µM"}, {"measurement": "TGI", "setting": "TK-10 renal", "result": 5.26, "unit": "µM"}, {"measurement": "GI50", "setting": "DU-145 prostate", "result": 0.411, "unit": "µM"}, {"measurement": "TGI", "setting": "DU-145 prostate", "result": 2.33, "unit": "µM"}, {"measurement": "GI50", "setting": "KM12 colon", "result": 1.59, "unit": "µM"}, {"measurement": "TGI", "setting": "KM12 colon", "result": 4.72, "unit": "µM"}, {"measurement": "GI50", "setting": "UACC-62 melanoma", "result": 2.47, "unit": "µM"}, {"measurement": "TGI", "setting": "UACC-62 melanoma", "result": 8.12, "unit": "µM"}, {"measurement": "GI50", "setting": "IGROV1 ovarian", "result": 4.08, "unit": "µM"}, {"measurement": "TGI", "setting": "IGROV1 ovarian", "result": "> 100", "unit": "µM"}, {"measurement": "GI50", "setting": "NCI-H226 lung", "result": "> 100", "unit": "µM"}, {"measurement": "TGI", "setting": "NCI-H226 lung", "result": "> 100", "unit": "µM"}, {"measurement": "GI50", "setting": "HCT-15 colon", "result": 1.35, "unit": "µM"}, {"measurement": "TGI", "setting": "HCT-15 colon", "result": 6.43, "unit": "µM"}]}]}
